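Cultured in 96-well plates, cells were exposed to test compound for 48 hours across five concentrations. GI50 = concentration required for 50% inhibition of growth. TGI: concentration producing complete growth inhibition.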
Assays:
Experiment in all cases: NCI-60 cell line screen, 48 h
RPMI-8226 leukemia = system: RPMI-8226 leukemia
UACC-257 melanoma = system: UACC-257 melanoma
HL-60(TB) leukemia = system: HL-60(TB) leukemia
ACHN renal = system: ACHN renal
HCT-116 colon = system: HCT-116 colon
SNB-19 CNS = system: SNB-19 CNS
NCI-H522 lung = system: NCI-H522 lung
PC-3 prostate = system: PC-3 prostate
A498 renal = system: A498 renal
DU-145 prostate = system: DU-145 prostate

SMILES	TGI (RPMI-8226 leukemia) [µM]	TGI (UACC-257 melanoma) [µM]	TGI (HL-60(TB) leukemia) [µM]	TGI (ACHN renal) [µM]	TGI (HCT-116 colon) [µM]	TGI (SNB-19 CNS) [µM]	TGI (NCI-H522 lung) [µM]	TGI (PC-3 prostate) [µM]	TGI (A498 renal) [µM]	GI50 (RPMI-8226 leukemia) [µM]	GI50 (UACC-257 melanoma) [µM]	GI50 (DU-145 prostate) [µM]	TGI (DU-145 prostate) [µM]	GI50 (ACHN renal) [µM]	GI50 (PC-3 prostate) [µM]	GI50 (A498 renal) [µM]	GI50 (HCT-116 colon) [µM]	GI50 (SNB-19 CNS) [µM]	GI50 (NCI-H522 lung) [µM]	GI50 (HL-60(TB) leukemia) [µM]
COC(=O)C1(C)CCc2c(OC)ccc(OC)c2C1=O (stereo not given)	> 100	> 100	> 100	> 100	> 100	> 100	> 100													
COc1cc2c(c(OC)c1OC)-c1ccc(SC)c(=O)cc1C(NC(=O)c1ccccc1)CC2 (stereo not given)	52.5	18.4	< 0.0127	> 63.1	0.188	29.1	< 0.0316	> 31.6	0.435											
Cc1ccc(-c2nnc(-c3nn(-c4ccccc4)c4nc5ccccc5nc34)o2)cc1	> 100	> 100	> 100	35.2	25	76	48.7													
O=C(NN1C(=O)CSC12CCCCC2)c1[nH]c2ccc(Br)cc2c1-c1ccccc1	33.2	72.5		58.1	35.3	64.2	49.5	32.2	60.5	12.7	26.4	19.1	38.8	22.6	16.5	24.1	16.4	24.1	18.7	
CCOC(=O)C1C(=S)NC(=O)C1C#N (stereo not given)	> 100	> 100	> 100	> 100		> 100	> 100													
CC(=O)Nc1ccc(SC#N)c2c(NC(C)=O)cccc12	73.9	> 100	71.5	> 100	> 100	> 100	> 78.4		> 100											
O=C1CC(c2c[nH]c3ccccc23)C(=O)N1 (stereo not given)	> 100	> 100	> 100	> 100	> 100				> 100											
Clc1ccc(Nc2nc3ccccc3nc2-c2cccs2)cc1Cl	> 100	> 100	78.3	> 100	> 100	> 100														
Cc1c(/C=N/N=C/c2[nH]c(C(=O)OC(C)(C)C)c(C)c2C)[nH]c(C(=O)OC(C)(C)C)c1C	> 100	> 100	> 100		> 100	> 100	> 100		> 100											
COc1cc2c3c(n(C)c(=O)c2cc1OC)-c1cc2c(cc1/C3=C\CCCCN1C(=O)c3ccccc3C1=O)OCO2	> 100	> 100		10.9	> 100	> 100		51.6	37.1	8.5	23.4			1.8	10.5	2.79	22.8	36.6		
CCCCCCCCCCCCCCCCCC[n+]1ccc2c(C)c3c(c(C)c2c1)c1cc(O)ccc1n3CC	17.5		12.4	19.6	12.7	6.36	18.1	11	3.86	1.58		1.87	5.64	3.51	1.3	1.19	1.19	1.79	1.89	2.33
O=C1OC(Cc2ccccc2)(N2CCCC2=O)C1c1ccccc1 (stereo not given)	> 100	> 100	> 100	> 100	> 100	> 100	> 100		> 100											
O=C(NC1CCCCC1)NS(=O)(=O)c1ccc2c(c1)CCC2	> 100	> 100	> 100	> 100		> 100	> 100													
O=[N+]([O-])c1ccc(C=Cc2ccccc2)cc1.[C-]#[O+].[C-]#[O+].[C-]#[O+].[Cr]		> 100	> 100	> 100	> 100	> 100	> 100	> 100	> 100		44.4	24.3	> 100	18.5	43.3	7.53	14.8	> 100	3.85	5.2
Cc1[nH]c2ccccc2c1C(=O)CC1(O)C(=O)Nc2c(Cl)cc(Cl)cc21 (stereo not given)	53.8	31.5	37.6	53.5	> 100	> 100	32.9		67.4											
Cc1ccc(/C=C/C(=O)C(C)(C)CN2CCCCC2)cc1	14.7	23.2		23.7	22.6	8.73	13.7		19.5											
CC#CCC1CCC(OCC)=CC1=O (stereo not given)	> 100	> 100	> 100	> 100	> 100	> 100	> 100													
COc1cccc(OC(=O)c2ccc(C(F)(F)F)nc2Nc2cc(Cl)ccc2C)c1	23.2	54.8		> 100	55.8	> 100	71.3	> 100	20.9	4.2	13.3	9.01	> 100	15.6	4.47	4.19	16.9	> 100	10	
CO/N=C(\COc1ccc2c(c1)[nH]c1ccccc12)c1ccc(F)cc1	> 100	> 100		> 100	> 100	> 100	> 100	> 100		43.9	48.7	> 100	> 100	35.7	30.6		20.6	30	> 100	
CCC(=O)C12OC3OC(C)(C)OC3C1OC(C)(C)O2 (stereo not given)		> 100	> 100	> 100	> 100	> 100	> 100		> 100											
N#CC(C#N)=C1NC(=O)CC(=O)N1	> 100	> 100	> 100		> 100	> 100	> 100		> 100											

SMILES	TGI (RPMI-8226 leukemia) [µM]	TGI (UACC-257 melanoma) [µM]	TGI (HL-60(TB) leukemia) [µM]	TGI (ACHN renal) [µM]	TGI (HCT-116 colon) [µM]	TGI (SNB-19 CNS) [µM]	TGI (NCI-H522 lung) [µM]	TGI (PC-3 prostate) [µM]	TGI (A498 renal) [µM]	GI50 (RPMI-8226 leukemia) [µM]	GI50 (UACC-257 melanoma) [µM]	GI50 (DU-145 prostate) [µM]	TGI (DU-145 prostate) [µM]	GI50 (ACHN renal) [µM]	GI50 (PC-3 prostate) [µM]	GI50 (A498 renal) [µM]	GI50 (HCT-116 colon) [µM]	GI50 (SNB-19 CNS) [µM]	GI50 (NCI-H522 lung) [µM]	GI50 (HL-60(TB) leukemia) [µM]
Fc1ccc(C2SCc3nc4ccccc4n32)c(F)c1 (stereo not given)	> 100	> 100	56.2	> 100	> 100	> 100	> 100		> 100											
CCCP1(=O)C=C(C)C(=C(Cl)Cl)C(C)=C1 (stereo not given)		> 100	54.7	> 100	> 100		36.5		> 100											
COc1ccc(-c2cc(-c3ccc(C)cc3)nc3nc(=S)[nH]c(N)c23)cc1	44.4	45.3		62.5	26.6	> 100	39	> 100	39.4	18.4	22.8	26.3	75.5	18.8	37.7	19.2	11.3	37.6	19.3	
CC1(O)C=CC(=O)C=C1	> 100	34.2	52.8	> 62.8	> 100	70.3	33.7		> 78.6											
NC(CSC1c2ccccc2-c2ccccc21)C(=O)O (stereo not given)	> 100	> 100	> 100	> 100	> 100	> 100		> 100	> 100				> 100							
N#CC(=C1C=CC(=NO)C=C1)c1ccc(Cl)cc1	15.3		9.6	24.9	21.6	> 100	7.66		> 100											
COc1ccc(-c2cc(Cc3cccs3)c(=O)[nH]n2)cc1		> 100		> 100	> 100	> 100														
OCC12C3C4C5C3C1C5C42 (stereo not given)		> 100	> 100	> 100	> 100	> 100	> 100	> 100	> 100				> 100							
COc1cc(C(=O)C/C(CCC(=O)Nc2ccccc2[N+](=O)[O-])=N\NC(N)=O)ccc1O	> 100	> 100	> 100	> 100	> 100	> 100	> 100		> 100											
CS(=O)(=O)c1ccc(-c2cc(-c3ccc(S(C)(=O)=O)cc3)[n+](-c3cc(-c4ccc(S(C)(=O)=O)cc4)c([O-])c(-c4ccc(S(C)(=O)=O)cc4)c3)c(-c3ccc(S(C)(=O)=O)cc3)c2)cc1	> 100	> 100		> 100	> 100	> 100	> 100													
CC(=O)OC12C=C(C)C(C(C)C1)C1C(=O)N(CCN3CCOCC3)C(=O)C12 (stereo not given)		> 100	> 100	> 100	> 100	> 100	> 100	> 100	> 100		> 100	> 100	> 100	> 100	> 100	> 100	> 100	> 100	> 100	> 100
COc1ccc(C=O)c([N+](=O)[O-])c1	> 100	> 100	23.6	> 100	26.4	> 100	> 100		> 100											
O=C(/C=C\c1cccc([N+](=O)[O-])c1)/C=C/c1cccc([N+](=O)[O-])c1	1.6	> 100		> 100	0.407	> 100	10.9	> 100	> 100	0.43	21.4	3.49	56	4.47	3.17	> 100	0.2	16.4	2.79	
CCOC(=O)C1=C(C)N(c2ccc(Cl)cc2)[C@]2(C#N)C(O)=C(Cl)C(Cl)=C(O)[C@]12C#N	> 100	> 100	> 100	> 100	> 100	> 100	> 100		> 100	48.6	> 100	0.339	24.5	31.6		> 100	90	> 100	56.5	88.2
CN(N=O)C(=O)ON1C(=O)CCC1=O	> 100	> 100	> 100	> 100	> 100	> 100	> 100		> 100											
NNC(=O)CS(=O)(=O)Nc1ncccn1	> 100	> 100		> 100	> 100	> 100	> 100	> 100	> 100				> 100							
CC(C)C[C@H](NC(=O)CNC(=O)c1cc(Cl)ccc1Cl)B1OC(=O)CC(CC(=O)O)(C(=O)O)O1 (stereo not given in full)			> 100	> 59.9	0.0711	> 100	0.056	1.82	0.164	0.0321		0.0804	14.8	0.0389	0.105	0.0347	0.0267	0.209	0.0217	0.0533
C#C[C@]1(O)CCCC2=CC(=O)CC[C@@]21C	> 100	> 100	> 100	> 100		> 100	> 100													
O=C1C(=C([O-])c2ccccc2)C(=O)c2ccccc21.O=C1C(=C([O-])c2ccccc2)C(=O)c2ccccc21.[Fe+2]	> 100	> 100	> 100	> 100	> 100	> 100	> 100		> 100	65.7	> 100			> 100		> 100	> 100	> 100	> 100	80.9
CCN(CC)CC1c2ccccc2C(CNc2ccccc2)N1C (stereo not given)	> 100	> 100	> 100	> 100		> 100	> 100													

From PubChem BioAssay (NCI)
